Assay [1] concerns the target MAT2A (Homo sapiens (Human), UniProt P31153). In words: Biochemical test: inhibition of MAT2A enzyme activity (phosphate detection, OD620). The following applies: MAT2A his-tag; 150 minutes enzymatic reaction. The text has this: Experimental principle: MAT2A can catalyze the conversion of L-methionine and ATP into SAM, inorganic phosphate, and inorganic diphosphate. By adding a chromogenic reagent to the enzymatic reaction system, the content of inorganic phosphates in a sample can be quantitatively detected, thereby characterizing the enzymatic activity of MAT2A.
Experimental material: Tris (Life Science #0497); BSA (Sigma #); MAT2A his-tag (BPS #71401-1); 384 well plate (Corning #3765); L-methionine (Admas #1100469); ATP (Sigma #A7699); MgCl2 (Sigma #M8266); KCl (Sigma #7447-40-7); Brij35 (Sigma #B4184); EDTA (Sigma #E1644)
1. 1×Assaybuffer (buffer composition: Tris, KCl, MgCl2, BSA, Brij35, and EDTA; the solvent was ultrapure water) was prepared. MAT2A his-tag enzyme solution (containing 1.3 μL of MAT2A enzyme and 998.7 μL of 1×Assaybuffer per 1000 μL) and substrate mixed solution (containing 5 μL of ATP, 1.3 μL of L-methionine, and 993.7 μL of 1×Assaybuffer per 1000 μL) were prepared using 1×AssayBuffer.
2. Preparation of compound concentration gradient: The test compound was tested with a starting concentration of 10 μM, and 10 equimolar concentrations were set according to a 3-fold dilution. Specifically, firstly, the compound was diluted into 10 different concentrations of series solutions in a 384 well plate (with final detection concentrations of 10, 3.33, 1.11, 0.37, 0.123, 0.041, 0.0137, 0.0046, 0.0015, and 0.0005 μM), and then 250 nL of the above series solutions was transferred to the 384 well reaction plate using an ultrasonic pipetting system Echo550 for later use. 250 nL of 100% DMSO was added into a negative control well and a positive control well, respectively. Double well test.
3. 15 μL of MAT2A his-tag enzyme solution was added into both the compound well and the positive control well; and 15 μL of 1×Assaybuffer was added into the negative control well.
4. The 384 well plate reaction plate was centrifuged at 1000 rpm for 60 seconds, shaken, mixed well, and incubated for 15 minutes. 10 μL of substrate mixed solution was added into each experimental well of the 384 well reaction plate to initiate the reaction.
5. The 384 well reaction plate was centrifuged at 1000 rpm for 60 seconds, shaken, mixed well, and incubated for 150 minutes.
6. 50 μL of enzyme reaction termination solution Biomol was added into all experimental wells of the 384 well reaction plate to terminate the reaction, centrifuged at 1000 rpm for 60 seconds, and incubated for 15 minutes. OD620 was read and data was processed.
Data analysis: the inhibition rate (%) of the compound was calculated and fitted to obtain the IC50 of the tested compound. Calculation method for compound inhibition rate: Compound inhibition rate (%)=(OD620_max−OD620_stample)/(OD620_max−OD620_min)×100, wherein OD620_stample was the absorbance value of the sample well; OD620 min was the absorbance value of the positive control well, indicating the reading of the wells without enzyme activity; and OD620_max was the absorbance value of the negative control well, indicating the reading of the well without compound inhibition.

The test system of assay [2] is KP-4 cells. In words: Human pancreatic cancer KP-4 cell activity inhibition test (CellTiter-Glo). The format is cell-based. To be noted: 5 days. As to the method: Experimental principle: after co-incubating the MAT2A inhibitor to be tested with KP-4 cells for a period of time, a cell viability measurement method based on ATP content is used to characterize the effect of the tested compound on cell viability.
Experimental material: KP-4 cells (JCRB #JCRB0182); IMDM (Gibco 912440061); fetal bovine serum (EXCELL #FND500); penicillin-streptomycin (Gibco #15140-122); 0.25% Typsin-EDTA (Gibco #252(101-072); DMSO (Sigma #D2650); 96 well plate (Corning #3610); CellTiter-Glo (Promega #G7571)
1. KP-4 cells were cultured in IMDM culture medium containing 10% e fetal bovine serum and 1% penicillin-streptomycin at 37° C. and 5% CO2 in a cell culture incubator. Only cells in logarithmic growth phase were used for subsequent experiments.
2. The cells in logarithmic growth phase were inoculated into a 96 well plate, with a seeding quantity of 500 cells per well, and incubated overnight in a cell culture incubator at 37′C and 5% CO2.
3. The compound was dissolved with DMSO, diluted with culture medium to 10 different concentrations (approximately […]), 3333.3, 1111.1, 370, 123, 41.2, 13.7, 4.6, 1.5, and 0.5 nM) before adding it to the cell plate, and cultured at 37° C. and 5% CO2 for 5 days.
4. CellTiter-Glo reagent was added, and an enzyme-linked immunosorbent assay reader was used to detect cell viability.
Data analysis: the inhibition rate (%) of the compound was calculated and fitted to obtain the IC50 of the tested compound. Calculation method for compound inhibition rate: Compound inhibition rate (%)=(Signal_max−Signal_sample)/(Signal_max−Signal_min)×100, wherein Signal_sample was the sample well reading, indicating the cell activity of the compound inhibition well; Signal_min was the positive control well reading, indicating the background activity without cells; and Signal_max was the negative control well reading, indicating the cell activity of the well without compound inhibition.
(Cellular ATP, detected with luciferase, serves as a proxy for viable cell number.)

MAT2A, sequence (P31153 whole entry): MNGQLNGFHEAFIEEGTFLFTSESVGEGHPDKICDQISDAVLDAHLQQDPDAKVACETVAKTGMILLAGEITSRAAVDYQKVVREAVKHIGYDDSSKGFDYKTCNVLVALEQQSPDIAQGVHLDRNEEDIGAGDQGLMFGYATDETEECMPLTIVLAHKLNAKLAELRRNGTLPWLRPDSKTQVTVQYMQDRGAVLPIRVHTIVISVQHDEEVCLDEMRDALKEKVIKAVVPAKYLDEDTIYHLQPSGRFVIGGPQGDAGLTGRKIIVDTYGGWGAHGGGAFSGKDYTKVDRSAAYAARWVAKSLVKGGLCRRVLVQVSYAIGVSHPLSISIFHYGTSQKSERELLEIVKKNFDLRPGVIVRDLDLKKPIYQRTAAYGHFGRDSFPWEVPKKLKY

The IC50 is the concentration that inhibits the measured activity by half. Low values mean greater potency, high ones weaker potency. With `Cn1cc2cc(-n3c(=O)c(-c4ccc(OC(F)F)cc4)c(OCC(F)(F)F)c4cn[nH]c43)ccc2n1` [Compound 27], the IC50 in assay [1] worked out at 0.0171 µM; in assay [2] (Homo sapiens, 120 h) it was 0.0068 µM.
On to `CCOc1c(-c2ccc(Cl)cc2)c(=O)n(-c2ccc3nn(C)cc3n2)c2[nH]ncc12` [Compound 84], for which the IC50 in assay [1] was 0.0207 µM; in assay [2] (Homo sapiens, 120 h) it was 0.025 µM.
As to `CCOc1c(-c2ccc(OC(F)F)cc2)c(=O)n(-c2ccc3nn(CC)cc3c2)c2[nH]ncc12` [Compound 19], the IC50 in assay [1] stood at 0.0166 µM; in assay [2] it was 0.0074 µM.
On to `Cn1cc2cc(-n3c(=O)c(-c4ccc(C5CC5)nc4)c(OCC(F)(F)F)c4cn[nH]c43)ccc2n1` [Compound 53], for which the IC50 in assay [1] worked out at 0.016 µM; in assay [2] (Homo sapiens, 120 h) it was 0.0195 µM.
The like results for `CCOc1c(-c2ccc(Cl)cc2)c(=O)n(-c2ccc3nn(C)nc3c2)c2[nH]ncc12` [Compound 127] were, in that order, 0.0124 µM and 0.0089 µM.
The like results for `CCOc1c(-c2ccc(Cl)cn2)c(=O)n(-c2ccc3nn(C)cc3c2)c2[nH]ncc12` [Compound 62] were, in that order, 0.018 µM and 0.18 µM.
On the same counts, the results for `CCOc1c(-c2ccc(Cl)cc2)c(=O)n(-c2ccc3nn(C)c(C)c3c2)c2[nH]ncc12` [Compound 66] are 0.0137 µM and 0.0127 µM.
For `CCOc1c(-c2ccc(OC(F)F)cc2)c(=O)n(-c2ccc3ncn(C)c3c2)c2[nH]ncc12` [Compound 22], the figures for the IC50 in assay [1] and in assay [2] were 0.016 µM and 0.0281 µM, respectively.
With `CCNc1c(-c2ccc(Cl)cc2)c(=O)n(-c2ccc3nn(C)cc3c2)c2[nH]ncc12` [Compound 11], the IC50 in assay [1] is 0.0142 µM; in assay [2] (Homo sapiens, 120 h), 0.0049 µM.
The like results for `CCOc1c(-c2ccc(C3CC3)nc2)c(=O)n(-c2ccc3nn(C)cc3c2)c2[nH]ncc12` [Compound 47] were, in that order, 0.0148 µM and 0.0066 µM.
On the same counts, the results for `CCOc1c(-c2ccc(C(F)(F)F)nc2)c(=O)n(-c2ccc3nn(C4COC4)cc3c2)c2[nH]ncc12` [Compound 92] are 0.0191 µM and 0.279 µM.
For `CCNc1c(-c2ccc(OC(F)F)cc2)c(=O)n(-c2ccc3nn(C)cc3n2)c2[nH]ncc12` [Compound 129], the IC50 came out at 0.0178 µM in assay [1] and 0.0233 µM in assay [2] (Homo sapiens, 120 h).
On the same counts, the results for `Cn1cnc2ccc(-n3c(=O)c(-c4ccc(Cl)cc4)c(OCC(F)(F)F)c4cn[nH]c43)cc21` [Compound 36] are 0.017 µM and 0.0392 µM.
The like results for `CCOc1c(-c2ccc(Cl)cc2)c(=O)n(-c2ccc3nn(C4COC4)cc3c2)c2[nH]ncc12` [Compound 90] were, in that order, 0.0182 µM and 0.032 µM.
In the case of `Cn1cc2nc(-n3c(=O)c(-c4ccc(Cl)cc4)c(OCC4CC4)c4cn[nH]c43)ccc2n1` [Compound 96], the IC50 in assay [1] turned out to be 0.0176 µM; in assay [2] (Homo sapiens, 120 h) it was 0.032 µM.
As to `CCNc1c(-c2ccc(OC(F)F)cc2)c(=O)n(-c2ccc3nn(C)cc3c2)c2[nH]ncc12` [Compound 9], the IC50 in assay [1] is 0.0153 µM; in assay [2] (Homo sapiens, 120 h), 0.0247 µM.
Turning to `O=c1c(-c2ccc(Cl)cc2)c(OCC(F)(F)F)c2cn[nH]c2n1-c1ccc2nn(C3COC3)cc2c1` [Compound 93], the IC50 came out at 0.0162 µM in assay [1] and 0.0015 µM in assay [2] (Homo sapiens, 120 h).
The like results for `CCOc1c(-c2ccc(Br)cc2)c(=O)n(-c2ccc3nn(C)cc3c2)c2[nH]ncc12` [Compound 54] were, in that order, 0.0129 µM and 0.0192 µM.
On the same counts, the results for `Cn1cc2nc(-n3c(=O)c(-c4ccc(Cl)cc4)c(OCC(F)(F)F)c4cn[nH]c43)ccc2n1` [Compound 99] are 0.0161 µM and 0.0878 µM.
The like results for `COc1ccc(-c2c(OCC(F)(F)F)c3cn[nH]c3n(-c3ccc4nn(C)cc4c3)c2=O)cn1` [Compound 29] were, in that order, 0.0123 µM and 0.0135 µM.
With `CNc1c(-c2ccc(OC)cc2)c(=O)n(-c2ccc3nn(C)cc3c2)c2[nH]ncc12` [Compound 4], the IC50 was 0.062 µM in assay [1] and 0.028 µM in assay [2] (Homo sapiens, 120 h).
As to `CCNc1c(-c2ccc(C(F)(F)F)nc2)c(=O)n(-c2ccc3nn(C)cc3c2)c2[nH]ncc12` [Compound 106], the IC50 was determined as 0.0288 µM in assay [1] and 0.235 µM in assay [2] (Homo sapiens, 120 h).
The like results for `CCCOc1c(-c2ccc(Cl)nc2)c(=O)n(-c2ccc3nn(C)cc3c2)c2[nH]ncc12` [Compound 58] were, in that order, 0.0148 µM and 0.0035 µM.
On to `CCOc1c(-c2ccc(OC(F)F)cc2)c(=O)n(-c2ccc3nn(CCO)cc3c2)c2[nH]ncc12` [Compound 20], for which the IC50 in assay [1] was determined as 0.0098 µM; in assay [2], 0.224 µM.
`CCOc1c(-c2ccc(C(F)(F)F)nc2)c(=O)n(-c2ccc3nn(C)cc3c2)c2[nH]ncc12` [Compound 46]: the IC50 in assay [1] worked out at 0.0153 µM; in assay [2] (Homo sapiens, 120 h), 0.0609 µM.
For the compound `CCOc1c(-c2ccc(OC(F)F)cc2)c(=O)n(-c2ccc3nn(C4COC4)cc3c2)c2[nH]ncc12` [Compound 37], the IC50 is 0.011 µM in assay [1] and 0.036 µM in assay [2] (Homo sapiens, 120 h).
The like results for `Cc1ccc(-c2c(OCC(F)(F)F)c3cn[nH]c3n(-c3ccc4nn(C)cc4c3)c2=O)cn1` [Compound 52] were, in that order, 0.0176 µM and 0.009 µM.
The like results for `CCOc1c(-c2ccc(F)cc2)c(=O)n(-c2ccc3nn(C)cc3c2)c2[nH]ncc12` [Compound 17] were, in that order, 0.0139 µM and 0.018 µM.
The like results for `CCOc1c(-c2ccc(Cl)cc2)c(=O)n(-c2ccc3nn(C)cc3n2)c2nn(C)cc12` [Compound 109] were, in that order, 0.0232 µM and 0.128 µM.
With `Cn1cc2nc(-n3c(=O)c(-c4ccc(Cl)cc4)c(NCC4CC4)c4cn[nH]c43)ccc2n1` [Compound 107], the IC50 was 0.0167 µM in assay [1] and 0.0732 µM in assay [2] (Homo sapiens, 120 h).
On the same counts, the results for `CCOc1c(-c2ccc(OC(F)F)cc2)c(=O)n(-c2ccc3nn(C)cc3c2)c2nn(C)cc12` [Compound 45] are 0.0105 µM and 0.0891 µM.
As for `CCOc1c(-c2ccc(Cl)cc2)c(=O)n(-c2ccc3nn(CCN(C)C)cc3c2)c2[nH]ncc12` [Compound 111], the IC50 in assay [1] is 0.0175 µM; in assay [2] (Homo sapiens, 120 h), 0.0628 µM.
As for `CCOc1c(-c2ccc(OC(F)F)cc2)c(=O)n(-c2ccc3nn(C4CNC4)cc3c2)c2[nH]ncc12` [Compound 38], the IC50 was found to be 0.0186 µM in assay [1] and 0.149 µM in assay [2] (Homo sapiens, 120 h).
For `CCOc1c(-c2ccc(F)c(F)c2)c(=O)n(-c2ccc3nn(C)cc3c2)c2[nH]ncc12` [Compound 118], the IC50 turned out to be 0.016 µM in assay [1] and 0.136 µM in assay [2] (Homo sapiens, 120 h).
The like results for `CCOc1c(-c2ccc(Cl)cc2)c(=O)n(-c2ccc3nn(C)cc3c2)c2cn[nH]c12` [Compound 55] were, in that order, 0.0165 µM and 0.0025 µM.
On the same counts, the results for `CCNc1c(-c2ccc(OC)cc2)c(=O)n(-c2ccc(OC)cc2)c2[nH]ncc12` [Compound 10] are 0.0206 µM and 0.618 µM.
